Holding throughout (assay type): in vivo
Assay [1] in a line: Liver histology, liver triglycerides and ALT in ob/ob mice treated for 4 months, not fasted. The following applies: for plasma alanine aminotransferase (ALT): after 4 months. As for the experimental part: (§1) Total lipids and triglycerides in the liver of animals were assessed according to a procedure partially reported by (Letteron P., Fromenty B., Terris B., Degott C., Pessayre D., 1996, J. Hepatol. 24 : 200-208). Briefly, after killing of the animals, livers were removed and homogenized in sterile water. Hepatic lipids were thus extracted by a mixture of chloroform and methanol (2/1; v/v). After removal of the aqueous phase, the organic phase (chloroform containing the lipids) was evaporated and the amount of lipids was determined by gravimetry. Lipids were subsequently resuspended in isopropanol (final concentration, ca. 10 mg/mL). After removal of the phopholipids by using aluminum hydroxide hydrate, triglycerides were determined colorimetrically by using periodate and the Nash's reagent (containing acetylacetone, ammonium acetate and isopropanol). The reaction generates diacetyldihydrolutidine which is assayed by spectrophotometry (λ=410 nm).
(§2) Plasma HDL-cholesterol and alanine aminotransferase (ALT) were measured on an automatic analyser (Olympus AU400®) with commercial kits (Olympus Diagnostica GmbH, references OSR6187 and OSR6107, respectively).
(§3) Finally, liver histology was performed according to regular procedure. Steatosis and fibrosis were assessed thanks to the Oil red O and Masson's trichrome stains, respectively, whereas necrosis and inflammation were determined thanks to the HPS (Hematoxylin-Phloxin-Saffron) stain, or the HE (Hematoxylin-Eosin) stain. In one experiment, perisinusoidal fibrosis was assessed with the Sirius Red stain.
In a second series of investigations, liver histology was studied in ob/ob mice treated for 4 months with β-aminoisobutyric acid, administered either at the usual dose (100 mg/kg/day) or at a higher dose (500 mg/kg/day). In this experiment, liver examination was performed in mice not submitted to a fasting period before sacrifice. The number of investigated animals were 6, 7 and 8, respectively in the control group and in the groups treated with 100 and 500 mg/kg/day of β-aminoisobutyric acid.

Assay [2] can be described thus: Plasma glucose in lean mice, standard diet, 6 weeks, not fasted. The settings on record: 100 mg/kg/day 6 weeks. As for the experimental part: Plasma glucose was measured on an automatic analyser (Synchron LX20 from Beckman Coulter) with a commercial kit (kit n°472500 from Beckman).
In a second series of experiments plasma glucose was assessed in lean mice fed with the standard diet and receiving (6 mice) or not (6 mice) 100 mg/kg/day of β-aminoisobutyric acid in the drinking water for 6 weeks, but at the end of the experiment, mice were not fasted. […] Indeed, plasma glucose was 11.5±0.8 and 10.7±0.4 mmol/L, respectively in control and treated mice.

A short description of assay [3]: Liver histology in ob/ob mice, first series (48-hr fast). The following applies: standard diet. As for the experimental part: as §2, §3
Liver histology was first examined in ob/ob mice fed with standard diet receiving (11 mice) or not (10 mice) β-aminoisobutyric acid in the drinking water. In this experiment, mice were submitted to a 48-hr period of fast before killing and liver examination.

Assay [4] is described as follows: Liver lipids in Swiss mice fed with a western diet. The settings on record: 100 mg/kg/day, western diet 6 weeks, fasted 48 h. How it is done: as §1
Liver lipids were assessed in mice fed with the western diet (WD) receiving or not of 100 mg/kg/day of β-aminoisobutyric acid (BAIBA) in the drinking water (8 mice in each group). For comparison, the experiment also included a group of mice (n=8) fed with a standard diet (SD). These animals were those used for the determination of body fat by DEXA (see above, paragraph I-c) but after the last DEXA measurement (i.e. after 6 weeks of treatment), mice were allowed to recover from the anaesthesia for ca. 2 days and were then submitted to a 48-hour period of fast. At the end of this fasting period DEXA was again performed (see above) and then mice were killed for liver lipids determination. The western diet was responsible for an increase in liver lipids as compared to mice fed with the standard diet.

Assay [5] can be described thus: Plasma lipids in ob/ob mice, 6 weeks, 15 hours overnight fast. The following applies: 100 mg/kg/day 6 weeks, fasted 15 hours. As for the experimental part: Plasma lipids (triglycerides, total cholesterol, phospholipids) were measured on an automatic analyser (Hitachi 717®). The commercial kits used to assess triglycerides, total cholesterol and phospholipids on this analyser were all from bioMérieux (references 61238, 61219 and 61491, respectively). Plasma non esterified fatty acids (NEFA) were assessed by using a commercial kit (Wako, reference 994-75409). Hepatic and plasma lipids were performed at the end of six weeks of treatment in animals that have been fasted for 48 hours. Triglycerides and HDL-cholesterol were also assessed after 2 months (in the fed state) or after 4 months of treatment (after an overnight fast).
as §2
In a second series of experiments, plasma lipids were assessed in ob/ob mice fed with a standard diet and receiving or not of 100 mg/kg/day of β-aminoisobutyric acid (BAIBA) in the drinking water during 6 weeks, but at the end of the experiment mice were fasted for only 15 hours (i.e. for an overnight fast). Samples of blood were then collected in controls mice (n=4) and in mice treated with BAIBA (n=5) for the assessment of plasma triglycerides, total cholesterol and HDL-cholesterol. In this experiment, BAIBA decreased plasma triglycerides and total cholesterol by 10 and 8%, respectively. Indeed, plasma triglycerides were 1.35±0.07 and 1.22±0.06 mmol/L, respectively in control and treated ob/ob mice, whereas plasma total cholesterol was 6.78±0.51 and 6.24±0.11 mmol/L, respectively in control and treated mice. […] Indeed, HDL-cholesterol was 4.73±0.31 and 4.92±0.24 mmol/L, respectively in control and treated mice.

From US20060167098A1, “Method for the treatment of diseases linked to an accumulation of triglycerides and cholesterol” (Institut National De La Sante ET De LA Recherche Medicale …, priority 2003, published 2006) come the findings set out here.

For `CC(CN)C(=O)O` (racemic) [BAIBA, D,L-β-Aminoisobutyric acid], in assay [1] (100 mg/kg/day, 4 months), the liver triglycerides is reported as 721±16 mg/g of lipids, the mice with inflammation stood at 43%, the mice with necrosis is 43% and the “mice with perisinusoidal fibrosis” value turned out to be 29%. Further, in assay [1] (100 mg/kg/day, 4 months), the “mice with portal or perivenular fibrosis” value is reported as 29%. Also, the “plasma alanine aminotransferase (ALT)” value in assay [1] (100 mg/kg/day) came to 290±61 U/L. Also, in assay [1] (500 mg/kg/day, 4 months), the liver triglycerides is reported as 707±29 mg/g of lipids. The “plasma alanine aminotransferase (ALT)” value in assay [1] (500 mg/kg/day) is recorded as 258±27 U/L. Further, in assay [1] (100 and 500 mg/kg/day, 4 months, not fasted), the “extent of steatosis vs control” value is listed as “about the same extent”. For the same compound, the plasma glucose in assay [2] amounted to 10.7 ± 0.4 mmol/L. Also, in assay [3], the animals with inflammation was 63%, the animals with necrosis stood at 63%, the “animals with perisinusoidal fibrosis” value worked out at 45% and the plasma alanine aminotransferase result was “not decreased”. Further, in assay [3] (11 treated mice), the “mice with between 90 and 100% of fat-laden hepatocytes” value amounted to 27%. In assay [4], this compound displayed a hepatic triglycerides of 33±6 mg/whole liver and a liver lipids of 108±7 mg/whole liver. Moreover, in assay [4] (vs Controls-WD), the “decrease of liver total lipids” value was found to be 24% and the “decrease of liver triglycerides” value came out at 17%. Also, in assay [5], the HDL-cholesterol was found to be 4.92 ± 0.24 mmol/L, the “decrease of plasma total cholesterol” value stood at 8%, the “decrease of plasma triglycerides” value was determined as 10% and the plasma total cholesterol worked out at 6.24 ± 0.11 mmol/L. Also, the plasma triglycerides in assay [5] was 1.22 ± 0.06 mmol/L.
